# In US9376499B2, “PAR-1 activation by metalloproteinase-1 (MMP-1)” (Tufts Medical Center, Inc., priority 2009, dated 2016):
# Non-standard residues stand in square brackets, D forms with d. Residues, ends and D or L forms follow the SMILES beside them. No end group written: not given here. *: point of attachment. 4Abz = Nc1ccc(C(=O)O)cc1; NHOH = ON*
# How the values were obtained:
# MAPKAP-K2 = assay: Collagen activation of phospho-MAPKAP-K2 in platelets (data not shown); format: cell-based, human
# [1] = Collagen-induced systemic platelet activation (thrombocytopenia) in guinea pigs; format: in vivo, guinea pig; conditions: i.v. P1pal-7 3 mg/kg or FN-439 10 mg/kg, 10 min before 200 μg collagen
# Protocol: Animal experiments were performed in accordance with the National Institutes of Health guidelines and approved by the Tufts Medical Center Institutional Animal Care and Use Committee. 2-4 week old Hartley guinea pigs (170-260 g) were anesthetized by an i.p. injection of xylazine (10 mg/kg) plus ketamine (50 mg/kg) and then catheterized via the left jugular vein and injected (200 μL) with either vehicle (20% DMSO/80% water), P1pal-7 or FN-439. For determination of collagen-dependent systemic platelet activation, 10 min after administration of inhibitors, 200 μg collagen in 200 μL of PBS was delivered via the jugular vein. Ten min after collagen injection, blood was collected into sodium citrate (1% v/v final) from the contralateral jugular vein and platelet counts were measured with a Hemavet850. The enzymatic activity of active MMP-1 in supernatants and platelet lysates was determined using DQ collagen I as fluorogenic substrate in the presence or absence of 3 μM FN-439, or 20 μg/ml of control IgG or a MMP-1 blocking Ab (preincubated for 2 h at 37° C.), as indicated.
# Intravascular platelet activation was then induced by an intravenous injection of collagen into the guinea pigs. Vehicle, P1pal-7 (3 mg/kg) or FN-439 (10 mg/kg) were delivered i.v. to the internal jugular vein of guinea pigs (n=6) and allowed to circulate for 10 min. […]
# [2] = Angiogenesis in adventitia of abdominal aorta of ApoE-/- mice (CD31 whole mount immunostaining); format: in vivo, mouse; conditions: 15 weeks
# Protocol: Angiogenesis may promote the progression of atherosclerosis and contribute to plaque instability and rupture. […] Angiogenesis was therefore evaluated in the adventitia of aortas from apoE−/− mice fed a high fat diet for 15 weeks and treated with either the MMP-1 collagenase inhibitor, MMP Inh-1 (FN-439) or the PAR1 antagonist, P1pal-7. The mice were then anesthetized with Ketamine/Xylazine and pressure fixed with 10% formalin. The abdominal aorta was isolated, removed and fixed for 1 hour with 10% formalin and adventitial fat was removed. The abdominal aorta were then whole mount immunostained for CD31, a marker for endothelial cells and 3D projection images were constructed from multiple confocal sections using the following procedure. Briefly, the tissue was blocked for 1 hour with 5% goat serum in Tris buffered saline containing 0.3% Triton-X 100 (TBST) and incubated overnight at 4° C. with primary antibody diluted 1:1000 in TBST. After several washes with TBST, the tissue was incubated with fluorescently tagged secondary antibody diluted in TBST for 4 hours. The tissue was washed and post-fixed with 4% paraformaldehyde for 10 minutes. The aorta was then cut lengthwise and splayed open onto a microscope slide with the adventitial side up. The tissue was whole mounted with Vectashield mounting media and imaged using a Leica TCS SP2 confocal microscope […]. Confocal images were constructed into 3D projections of Z-stacks. Quantification of images was performed using NIH ImageJ. Antibodies used were: hamster anti-mouse PECAM-1 (Chemicon) and Cy3-anti-hamster (Jackson Immunolabs).
# platelets = assay: Platelet thrombus formation on collagen surface under arterial flow, heparin-anticoagulated whole blood; format: cell-based, human; conditions: heparin 10 U/mL; shear rate 1,000 s-1; FN-439 3 μM, RWJ-56110 1 μM, pepducins 3 μM, aspirin 1 mM
# Protocol: Following incubation with inhibitors, the blood was perfused over a glass slide coated with fibrillar collagen type I.
# A flow chamber (Glycotech) with Type-I fibrillar collagen-coated glass slides was mounted on the stage of an IMT-2 inverted microscope (Olympus) equipped with Retiga 1300 digital camera (QImaging) and 40× objective. One of the flow chamber inlets was connected to a syringe pump (Harvard Apparatus) calibrated to create a shear rate of 1,000^s-1. The whole blood pretreated with the various pharmacologic inhibitors was then perfused over the collagen-coated glass slide. After 2-15 min of perfusion, blood was removed from the flow chamber by gentle displacement with PIPES buffer and images of 8-10 fields were acquired using OpenLab software (Improvision). Acquired images were further analyzed using NIH Image 1.63 software. Images were first sharpened and the edges of separate platelets and platelet aggregates were determined. Following the adjustment of threshold, images were converted into the binary format, and the particle analysis function was activated to highlight the regions covered by platelets with the sensitivity set to one single adherent thrombocyte. For the conversion of pixels into square micrometers, a calibration curve was built using 2.5, 6, 20, 25, and 45 μm polystyrene beads (Polyscience) using acquisition conditions identical to the experimental. The mean area of formed thrombus was determined at 7 min. Area measurements in FIG. 6B represent the mean±s.e. of three separate experiments from five different blood donors.
# [3] = Carotid artery FeCl3 injury arterial thrombosis model; format: in vivo, guinea pig; conditions: for prolongation of the mean occlusion time: P1pal-7 alone 0.3 mg/kg, FN-439 alone 2.0 mg/kg i.v.
# Excerpt: To assess the efficacy on arterial thrombosis by blockade of thrombin, MMP-1, or PAR1, a standard carotid artery FeCl3 injury model was used in guinea pigs. FeCl3 causes denudation of the artery and exposure of type I collagen and other subendothelial matrix proteins. The effects of blocking thrombin with bivalirudin, MMP-1 with FN-439, and PAR1 with either the small molecule antagonist RWJ-56110 or the P1pal-7 pepducin on arterial thrombosis were then compared using a dopier probe.
# For these arterial thrombosis experiments, 10 min after i.v. administration of vehicle (−), bivalirudin, RWJ-56110, P1 pal-7 or FN-439 (n=4-5) through the jugular vein at the indicated concentrations, the right carotid arteries were injured for 20 min using a 24 mm^2 piece of Bio-Rad Trans-Blot paper soaked in 20% FeCl3. Arterial flow 5 mm distal to the site of injury was measured with a 0.5 V Doppler probe (Transonic Systems). An arterial occlusion was defined as a flow rate of <0.01 V for ≧5 min. Doppler measurements were terminated at the 30 min time point following injury (* designates p<0.05).
Compound,block of collagen-activation of phospho-MAPKAP-K2 (MAPKAP-K2),protection against collagen-induced thrombocytopenia / intravascular platelet activation [1],amount of CD31-positive vessels [2],number of branch points per vessel area [2],number of vascular bundles in the adventitia of the aorta [2],attenuation of growth rate and size of platelet aggregate strings (platelets),prolongation of the mean occlusion time [3],additional prolongation of arterial occlusion time in combination ([3]; 0.13 mg/kg P1pal-7 supplemented with 0.18 mg/kg bivalirudin)
CC(C)C[C@@H](NC(=O)[C@@H]1CCCN1C(=O)CNC(=O)c1ccc(N)cc1)C(=O)N[C@H](C)C(=O)NO [FN-439] (H-[4Abz]GP[dL][dA]-{NHOH}),blocked,significant protection,significantly reduced,significantly inhibited,significantly reduced,~75%,90%,–
"P1pal-7: PAR1 i3 loop pepducin lipopeptide, KKSRALF (SEQ ID NO. 2), palmitate (also: palmitate, site not given here)",blocked,almost completely protected,significantly reduced,significantly inhibited,significantly reduced,~75%,80%,no additional prolongation
